Laboratory results as given in patent US20050112573A1, “Method of detecting toxic substance” (priority 2001, published 2005).

Tested on: yeast genes (level of expressed mRNA)
Experiment: DNA chip analysis of expressed mRNA of yeast genes after 2 h culture with a toxic chemical substance
Assay type: cell-based, Saccharomyces cerevisiae S288C
Outline: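 Values are treated-to-control fluorescence ratios from a whole-yeast-genome DNA chip (65° C, over 12 h hybridization) using Cy3/Cy5-labelled cDNA from mRNA. Log-phase S288C cells in YPD at 25° C were exposed 2 h to a toxicant at sublethal, growth-inhibiting concentration.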

## Na2As [(1)]
Yeast gene YFL010C, ratio to control without chemical substance, 2 h culture
  The level of expressed mRNA in the presence of chemical substance/: 1.0
Yeast gene YFL024C, ratio to control without chemical substance, 2 h culture
  The level of expressed mRNA in the presence of chemical substance/: 1.0
Yeast gene YFL028C
  The level of expressed mRNA in the presence of chemical substance/The level of expressed mRNA in the absence of chemical substance: 1.2
Yeast gene YFL032W, ratio to control without chemical substance, 2 h culture
  The level of expressed mRNA in the presence of chemical substance/: 0.4
Yeast gene YFL043C
  The level of expressed mRNA in the presence of chemical substance/The level of expressed mRNA in the absence of chemical substance: 1.0
Yeast gene YGL035C
  The level of expressed mRNA in the presence of chemical substance/in the absence of chemical substance: 0.7
Yeast gene YGL037C, ratio to control without chemical substance, 2 h culture
  The level of expressed mRNA in the presence of chemical substance/: 1.5
Yeast gene YGL047W, ratio to control without chemical substance, 2 h culture
  The level of expressed mRNA in the presence of chemical substance/: 1.0
Yeast gene YGL053W, ratio to control without chemical substance, 2 h culture
  The level of expressed mRNA in the presence of chemical substance/: 1.5
Yeast gene YGL121C, ratio to control without chemical substance, 2 h culture
  The level of expressed mRNA in the presence of chemical substance/: 2.6
Yeast gene YGL158W
  The level of expressed mRNA in the presence of chemical substance/The level of expressed mRNA in the absence of chemical substance: 1.1
Yeast gene YGL199C, ratio to control without chemical substance, 2 h culture
  The level of expressed mRNA in the presence of chemical substance/: 1.1
Yeast gene YGL229C
  The level of expressed mRNA in the presence of chemical substance/The level of expressed mRNA in the absence of chemical substance: 0.6
Yeast gene YGR101W, ratio to control without chemical substance, 2 h culture
  The level of expressed mRNA in the presence of chemical substance/: 1.0
Yeast gene YGR110W, ratio to control without chemical substance, 2 h culture
  The level of expressed mRNA in the presence of chemical substance/: 1.6
Yeast gene YGR130C, ratio to control without chemical substance, 2 h culture
  The level of expressed mRNA in the presence of chemical substance/: 0.9
Yeast gene YGR136W
  The level of expressed mRNA in the presence of chemical substance/The level of expressed mRNA in the absence of chemical substance: 0.9
Yeast gene YGR154C, ratio to control without chemical substance, 2 h culture
  The level of expressed mRNA in the presence of chemical substance/: 1.8
Yeast gene YGR189C
  The level of expressed mRNA in the presence of chemical substance/The level of expressed mRNA in the absence of chemical substance: 1.1
Yeast gene YGR213C
  The level of expressed mRNA in the presence of chemical substance/The level of expressed mRNA in the absence of chemical substance: 5.4
Yeast gene YGR221C, ratio to control without chemical substance, 2 h culture
  The level of expressed mRNA in the presence of chemical substance/: 0.9
Yeast gene YGR257C
  The level of expressed mRNA in the presence of chemical substance/The level of expressed mRNA in the absence of chemical substance: 0.7
Yeast gene YGR287C
  The level of expressed mRNA in the presence of chemical substance/in the absence of chemical substance: 1.3
Yeast gene YHR004C
  The level of expressed mRNA in the presence of chemical substance/The level of expressed mRNA in the absence of chemical substance: 0.9
Yeast gene YHR071W
  The level of expressed mRNA in the presence of chemical substance/The level of expressed mRNA in the absence of chemical substance: 1.5
Yeast gene YHR138C, ratio to control without chemical substance, 2 h culture
  The level of expressed mRNA in the presence of chemical substance/: 2.8
Yeast gene YHR139C
  The level of expressed mRNA in the presence of chemical substance/The level of expressed mRNA in the absence of chemical substance: 3.0
Yeast gene YHR142W
  The level of expressed mRNA in the presence of chemical substance/The level of expressed mRNA in the absence of chemical substance: 1.5
Yeast gene YHR199C, ratio to control without chemical substance, 2 h culture
  The level of expressed mRNA in the presence of chemical substance/: 1.9
Yeast gene YIL023C, ratio to control without chemical
  The level of expressed mRNA in the presence of chemical substance/: 1.1
Yeast gene YIL041W, ratio to control without chemical substance, 2 h culture
  The level of expressed mRNA in the presence of chemical substance/: 1.0
Yeast gene YIL087C, ratio to control without chemical substance, 2 h culture
  The level of expressed mRNA in the presence of chemical substance/: 1.3
Yeast gene YIL123W
  The level of expressed mRNA in the presence of chemical substance/The level of expressed mRNA in the absence of chemical substance: 1.0
Yeast gene YIL140W
  The level of expressed mRNA in the presence of chemical substance/The level of expressed mRNA in the absence of chemical substance: 0.7
Yeast gene YJL057C, ratio to control without chemical substance, 2 h culture
  The level of expressed mRNA in the presence of chemical substance/: 1.5
Yeast gene YJL066C, ratio to control without chemical substance, 2 h culture
  The level of expressed mRNA in the presence of chemical substance/: 0.9
Yeast gene YJL070C
  The level of expressed mRNA in the presence of chemical substance/in the absence of chemical substance: 1.3
Yeast gene YJL073W
  The level of expressed mRNA in the presence of chemical substance/The level of expressed mRNA in the absence of chemical substance: 0.8
Yeast gene YJL082W, ratio to control without chemical substance, 2 h culture
  The level of expressed mRNA in the presence of chemical substance/: 1.4
Yeast gene YJL089W
  The level of expressed mRNA in the presence of chemical substance/The level of expressed mRNA in the absence of chemical substance: 1.1
Yeast gene YJL116C
  The level of expressed mRNA in the presence of chemical substance/The level of expressed mRNA in the absence of chemical substance: 0.9
Yeast gene YJL151C, ratio to control without chemical substance, 2 h culture
  The level of expressed mRNA in the presence of chemical substance/: 1.0
Yeast gene YJL152W, ratio to control without chemical substance, 2 h culture
  The level of expressed mRNA in the presence of chemical substance/: 0.9
Yeast gene YJL161W, ratio to control without chemical substance, 2 h culture
  The level of expressed mRNA in the presence of chemical substance/: 1.7
Yeast gene YJL167W
  The level of expressed mRNA in the presence of chemical substance/in the absence of chemical substance: 0.9
Yeast gene YJL171C, ratio to control without chemical substance, 2 h culture
  The level of expressed mRNA in the presence of chemical substance/: 2.3
Yeast gene YJL216C
  The level of expressed mRNA in the presence of chemical substance/in the absence of chemical substance: 0.8
Yeast gene YJR004C
  The level of expressed mRNA in the presence of chemical substance/The level of expressed mRNA in the absence of chemical substance: 0.2
Yeast gene YJR008W, ratio to control without chemical substance, 2 h culture
  The level of expressed mRNA in the presence of chemical substance/: 1.6
Yeast gene YJR054W, ratio to control without chemical
  The level of expressed mRNA in the presence of chemical substance/: 0.8
Yeast gene YJR086W
  The level of expressed mRNA in the presence of chemical substance/The level of expressed mRNA in the absence of chemical substance: 1.2
Yeast gene YKL008C
  The level of expressed mRNA in the presence of chemical substance/The level of expressed mRNA in the absence of chemical substance: 1.2
Yeast gene YKL013C
  The level of expressed mRNA in the presence of chemical substance/The level of expressed mRNA in the absence of chemical substance: 1.4
Yeast gene YKL039W
  The level of expressed mRNA in the presence of chemical substance/The level of expressed mRNA in the absence of chemical substance: 0.8
Yeast gene YKL041W
  The level of expressed mRNA in the presence of chemical substance/The level of expressed mRNA in the absence of chemical substance: 1.2
Yeast gene YKL071W, ratio to control without chemical substance, 2 h culture
  The level of expressed mRNA in the presence of chemical substance/: 8.3
